# Target: T1, GlyT1 (Homo sapiens, UniProt P48067)
# T1 construct: expressed in transfected cells
# T1 sequence (P48067 1-706): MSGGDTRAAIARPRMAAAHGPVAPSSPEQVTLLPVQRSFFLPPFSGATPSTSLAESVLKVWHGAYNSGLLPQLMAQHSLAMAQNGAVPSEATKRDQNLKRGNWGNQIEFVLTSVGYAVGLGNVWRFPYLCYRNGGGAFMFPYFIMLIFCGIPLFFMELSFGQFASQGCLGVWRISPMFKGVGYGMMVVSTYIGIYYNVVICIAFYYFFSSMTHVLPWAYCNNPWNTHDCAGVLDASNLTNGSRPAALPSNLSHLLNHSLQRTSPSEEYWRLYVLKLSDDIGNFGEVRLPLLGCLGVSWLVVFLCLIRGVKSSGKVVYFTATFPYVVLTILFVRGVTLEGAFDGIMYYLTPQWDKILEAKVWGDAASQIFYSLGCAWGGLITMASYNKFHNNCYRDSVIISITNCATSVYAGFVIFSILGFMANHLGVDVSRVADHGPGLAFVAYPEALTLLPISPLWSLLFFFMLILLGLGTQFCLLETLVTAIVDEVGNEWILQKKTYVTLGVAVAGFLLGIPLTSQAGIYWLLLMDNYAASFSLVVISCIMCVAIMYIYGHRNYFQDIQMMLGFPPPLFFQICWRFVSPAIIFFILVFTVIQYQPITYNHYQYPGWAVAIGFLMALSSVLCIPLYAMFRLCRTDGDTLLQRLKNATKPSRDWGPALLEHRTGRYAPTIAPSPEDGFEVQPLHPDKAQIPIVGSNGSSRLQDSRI
# Test: Glycine Transporter 1 (GlyT1) uptake assay, scintillation proximity assay of [14C]-glycine uptake
# Type: cell-based
# Settings: SPA, four parameter logistic fit, read-out: GlyT1 (pIC50) (converted)
# Procedure, shortened: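 IC50 values derive from four-parameter logistic curves fitted to dose-response data. Uptake of [14C]-glycine measured in scintillation proximity format.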
row,IC50 [nM],SMILES
1,100 to 1000,"CCS(=O)(=O)c1ccc(OC(C)C)c(C(=O)N2Cc3cn(-c4ccc(F)cc4F)nc3C2)c1 [Example 81, 2-(2 4-Difluorophenyl)-5-[5-(ethanesulfonyl)-2-(propan-2-yloxy)benzoyl]-2H 4H 5H 6H-pyrrolo[3,4-c]pyrazole]"
2,< 100,"CCS(=O)(=O)c1ccc(OC(C)C)c(C(=O)N2Cc3cn(-c4ccc(F)c(C(F)F)c4)nc3C2)c1 [Example 82, 2-[3-(Difluoromethyl)-4-fluorophenyl]-5-[5-(ethanesulfonyl)-2-(propan-2-yloxy)benzoyl]-2H 4H 5H 6H-pyrrolo[3,4-c]pyrazole]"
3,< 100,"CCS(=O)(=O)c1ccc(OC(C)C)c(C(=O)N2Cc3cn(-c4cccc(C)c4)nc3C2)c1 [Example 83, 5-[5-(Ethanesulfonyl)-2-(propan-2-yloxy)benzoyl]-2-(3-methylphenyl)-2H 4H 5H 6H-pyrrolo[3,4-c]pyrazole]"
4,< 100,"CCS(=O)(=O)c1ccc(OC(C)C)c(C(=O)N2Cc3cn(-c4ccc(F)cc4)nc3C2)c1 [Example 84, 5-[5-(Ethanesulfonyl)-2-(propan-2-yloxy)benzoyl]-2-(4-fluorophenyl)-2H 4H 5H 6H-pyrrolo[3,4-c]pyrazole]"
5,< 100,"Cc1cccc(-n2cc3c(n2)CN(C(=O)c2cc(S(C)(=O)=O)ccc2OC(C)C)C3)c1 [Example 85, 5-[5-Methanesulfonyl-2-(propan-2-yloxy)benzoyl]-2-(3-methylphenyl)-2H 4H 5H 6H-pyrrolo[3,4-c]pyrazole]"
6,100 to 1000,"CC(C)S(=O)(=O)c1ccc(O[C@@H](C)C(F)(F)F)c(C(=O)N2Cc3cn(-c4cccc(C(F)(F)F)c4F)nc3C2)c1 [Example 86, 2-[2-Fluoro-3-(trifluoromethyl)phenyl]-5-[5-(propane-2-sulfonyl)-2-{[(2S)-1 1 1-trifluoropropan-2-yl]oxy}benzoyl]-2H 4H 5H 6H-pyrrolo[3,4-c]pyrazole]"
7,100 to 1000,"Cc1cccc(-n2cc3c(n2)CN(C(=O)c2cc(S(=O)(=O)C(C)C)ccc2O[C@@H](C)C(F)(F)F)C3)c1F [Example 87, 2-(2-Fluoro-3-methylphenyl)-5-[5-(propane-2-sulfonyl)-2-{[(2S)-1 1 1-trifluoropropan-2-yl]oxy}benzoyl]-2H 4H 5H 6H-pyrrolo[3,4-c]pyrazole]"
8,100 to 1000,"CC(C)S(=O)(=O)c1ccc(O[C@@H](C)C(F)(F)F)c(C(=O)N2Cc3cn(-c4ccccc4F)nc3C2)c1 [Example 88, 2-(2-Fluorophenyl)-5-[5-(propane-2-sulfonyl)-2-{[(2S)-1 1 1-trifluoropropan-2-yl]oxy}benzoyl]-2H 4H 5H 6H-pyrrolo[3,4-c]pyrazole]"
9,100 to 1000,"Cc1cccc(-n2cc3c(n2)CN(C(=O)c2cc(S(=O)(=O)C(C)C)ccc2O[C@@H](C)C(F)(F)F)C3)c1 [Example 89, 2-(3-Methylphenyl)-5-[5-(propane-2-sulfonyl)-2-{[(2S)-1 1 1-trifluoropropan-2-yl]oxy}benzoyl]-2H 4H 5H 6H-pyrrolo[3,4-c]pyrazole]"
10,100 to 1000,"CC(C)S(=O)(=O)c1ccc(O[C@@H](C)C(F)(F)F)c(C(=O)N2Cc3cn(-c4ccccc4)nc3C2)c1 [Example 90, 2-Phenyl-5-[5-(propane-2-sulfonyl)-2-{[(2S)-1 1 1-trifluoropropan-2-yl]oxy}benzoyl]-2H 4H 5H 6H-pyrrolo[3,4-c]pyrazole]"
11,100 to 1000,"CC(C)S(=O)(=O)c1ccc(O[C@@H](C)C(F)(F)F)c(C(=O)N2Cc3cn(-c4ccc(F)cc4)nc3C2)c1 [Example 91, 2-(4-Fluorophenyl)-5-[5-(propane-2-sulfonyl)-2-{[(2S)-1 1 1-trifluoropropan-2-yl]oxy}benzoyl]-2H 4H 5H 6H-pyrrolo[3,4-c]pyrazole]"
12,100 to 1000,"CC(C)S(=O)(=O)c1ccc(O[C@@H](C)C(F)(F)F)c(C(=O)N2Cc3cn(-c4ccc(F)c(F)c4)nc3C2)c1 [Example 92, 2-(3 4-Difluorophenyl)-5-[5-(propane-2-sulfonyl)-2-{[(2S)-1 1 1-trifluoropropan-2-yl]oxy}benzoyl]-2H 4H 5H 6H-pyrrolo[3,4-c]pyrazole]"
13,1000 to 10000,"CC(C)Oc1ccc(S(=O)(=O)C(C)C)cc1C(=O)N1Cc2cn(-c3cccc(C(F)(F)F)c3F)nc2C1 [Example 93, 2-[2-Fluoro-3-(trifluoromethyl)phenyl]-5-[2-(propan-2-yloxy)-5-(propane-2-sulfonyl)benzoyl]-2H 4H 5H 6H-pyrrolo[3,4-c]pyrazole]"

# The remaining lines, values behind:
row,SMILES,IC50 [nM]
1,"CC(C)COc1ccc(S(C)(=O)=O)cc1C(=O)N1Cc2cn(-c3ccccc3F)nc2C1 [Example 66, 2-(2-Fluorophenyl)-5-[5-methanesulfonyl-2-(2-methylpropoxy)benzoyl]-2H 4H 5H 6H-pyrrolo[3,4-c]pyrazole]",< 100
2,"Cc1c(F)ccc(-n2cc3c(n2)CN(C(=O)c2cc(S(C)(=O)=O)ccc2OCC(C)C)C3)c1F [Example 67, 2-(2 4-Difluoro-3-methylphenyl)-5-[5-methanesulfonyl-2-(2-methylpropoxy)benzoyl]-2H 4H 5H 6H-pyrrolo[3,4-c]pyrazole]",< 100
3,"CC(C)COc1ccc(S(C)(=O)=O)cc1C(=O)N1Cc2cn(-c3cc(Cl)ccc3F)nc2C1 [Example 68, 2-(5-Chloro-2-fluorophenyl)-5-[5-methanesulfonyl-2-(2-methylpropoxy)benzoyl]-2H 4H 5H 6H-pyrrolo[3,4-c]pyrazole]",< 100
4,"Cc1c(F)ccc(-n2cc3c(n2)CN(C(=O)c2cc(S(C)(=O)=O)ccc2N2CCC(F)(F)CC2)C3)c1F [Example 70, 1-{2-[2-(2 4-Difluoro-3-methylphenyl)-2H 4H 5H 6H-pyrrolo[3,4-c]pyrazole-5-carbonyl]-4-methanesulfonylphenyl}-4 4-difluoropiperidine]",< 100
5,"CS(=O)(=O)c1ccc(N2CCC(F)(F)CC2)c(C(=O)N2Cc3cn(-c4cc(Cl)ccc4F)nc3C2)c1 [Example 71, 1-{2-[2-(5-Chloro-2-fluorophenyl)-2H 4H 5H 6H-pyrrolo[3,4-c]pyrazole-5-carbonyl]-4-methanesulfonylphenyl}-4 4-difluoropiperidine]",< 100
6,"CCS(=O)(=O)c1ccc(O[C@@H](C)C(F)(F)F)c(C(=O)N2Cc3cn(-c4cccc(C)c4)nc3C2)c1 [Example 72, 5-[5-(Ethanesulfonyl)-2-{[(2S)-1 1 1-trifluoropropan-2-yl]oxy}benzoyl]-2-(3-methylphenyl)-2H 4H 5H 6H-pyrrolo[3,4-c]pyrazole]",< 100
7,"CCS(=O)(=O)c1ccc(OC(C)C)c(C(=O)N2Cc3cn(-c4ccccc4)nc3C2)c1 [Example 73, 5-[5-(Ethanesulfonyl)-2-(propan-2-yloxy)benzoyl]-2-phenyl-2H 4H 5H 6H-pyrrolo[3,4-c]pyrazole]",< 100
8,"CCS(=O)(=O)c1ccc(OC(C)C)c(C(=O)N2Cc3cn(-c4ccccc4F)nc3C2)c1 [Example 74, 5-[5-(Ethanesulfonyl)-2-(propan-2-yloxy)benzoyl]-2-(2-fluorophenyl)-2H 4H 5H 6H-pyrrolo[3,4-c]pyrazole]",100 to 1000
9,"C[C@H](Oc1ccc(S(C)(=O)=O)cc1C(=O)N1Cc2cn(-c3ccc(F)c(C(F)F)c3)nc2C1)C(F)(F)F [Example 75, 2-[3-(Difluoromethyl)-4-fluorophenyl]-5-(5-methanesulfonyl-2-{[(2S)-1 1 1-trifluoropropan-2-yl]oxy}benzoyl)-2H 4H 5H 6H-pyrrolo[3,4-c]pyrazole]",< 100
10,"CC(C)Oc1ccc(S(C)(=O)=O)cc1C(=O)N1Cc2cn(-c3ccc(F)c(C(F)F)c3)nc2C1 [Example 76, 2-[3-(Difluoromethyl)-4-fluorophenyl]-5-[5-methanesulfonyl-2-(propan-2-yloxy)benzoyl]-2H 4H 5H 6H-pyrrolo[3,4-c]pyrazole]",< 100
11,"CC(C)(C)COc1ccc(S(C)(=O)=O)cc1C(=O)N1Cc2cn(-c3ccc(F)c(C(F)F)c3)nc2C1 [Example 77, 2-[3-(Difluoromethyl)-4-fluorophenyl]-5-[2-(2 2-dimethylpropoxy)-5-methanesulfonylbenzoyl]-2H 4H 5H 6H-pyrrolo[3,4-e]pyrazole]",< 100
12,"CCS(=O)(=O)c1ccc(O[C@@H](C)C(F)(F)F)c(C(=O)N2Cc3cn(-c4cccc(C)c4F)nc3C2)c1 [Example 78, 5-[5-(Ethanesulfonyl)-2-{[(2S)-1 1 1-trifluoropropan-2-yl]oxy}benzoyl]-2-(2-fluoro-3-methylphenyl)-2H 4H 5H 6H-pyrrolo[3,4-c]pyrazole]",< 100
13,"CCS(=O)(=O)c1ccc(O[C@@H](C)C(F)(F)F)c(C(=O)N2Cc3cn(-c4ccc(F)c(C(F)F)c4)nc3C2)c1 [Example 79, 2-[3-(Difluoromethyl)-4-fluorophenyl]-5-[5-(ethanesulfonyl)-2-{[(2S)-1 1 1-trifluoropropan-2-yl]oxy}benzoyl]-2H 4H 5H 6H-pyrrolo[3,4-c]pyrazole]",< 100
14,"CCS(=O)(=O)c1ccc(O[C@@H](C)C(F)(F)F)c(C(=O)N2Cc3cn(-c4ccccc4F)nc3C2)c1 [Example 80, 5-[5-(Ethanesulfonyl)-2-{[(2S)-1 1 1-trifluoropropan-2-yl]oxy}benzoyl]-2-(2-fluorophenyl)-2H 4H 5H 6H-pyrrolo[3,4-c]pyrazole]",< 100

# Reference: US9708334B2, “Substituted 2,4,5,6-tetrahydropyrrolo[3,4-c]pyrazole and 4,5,6,7-tetrahydro-2H-pyrazolo[4,3-c]pyridine compounds as GlyT1 inhibitors” (DART NEUROSCIENCE (CAYMAN) LTD., priority 2014, dated 2017)
